Measurements from ChEMBL document CHEMBL3885881, “DrugMatrix”.

Species: Rattus norvegicus
Assay: DrugMatrix - Regimen: Daily Repeat
Format: toxicity, organism-based, Sprague-Dawley
Set-up: regimen Daily Repeat, gender Male, age 6-8 weeks
Conditions: in vivo, po, route oral GAVAGE, vehicle .5 % CMC; for ABSOLUTE BASOPHIL / ABSOLUTE EOSINOPHIL / ABSOLUTE LYMPHOCYTE / ABSOLUTE MONOCYTE / ABSOLUTE SEGMENTED NEUTROPHIL / BASOPHIL / EOSINOPHIL / ERYTHROCYTE COUNT / HEMATOCRIT / HEMOGLOBIN / LEUKOCYTE COUNT / LYMPHOCYTE / MEAN CORPUSCULAR HEMOGLOBIN / MEAN CORPUSCULAR HEMOGLOBIN CONCENTRATION / MONOCYTE / NEUTROPHIL / NUCLEATED RED BLOOD CELLS / PLATELET COUNT: tissue Blood; for ALANINE AMINOTRANSFERASE / ALBUMIN / ALKALINE PHOSPHATASE / ASPARTATE AMINOTRANSFERASE / BLOOD UREA NITROGEN / CARBON DIOXIDE / CHLORIDE / CHOLESTEROL / CREATINE PHOSPHOKINASE / CREATININE / GLUCOSE / LACTATE DEHYDROGENASE / LIPASE / PHOSPHORUS / POTASSIUM / SODIUM / TOTAL BILIRUBIN / TOTAL PROTEIN / URIC ACID: tissue Plasma
[1] = 3 mg/kg, 120 h, dose level Low, time 5 day
[2] = 2000 mg/kg, 72 h, dose level High, time 3 day
[3] = 2000 mg/kg, 120 h, dose level High, time 5 day

## COc1cc2nc(N3CCN(C(=O)c4ccco4)CC3)nc(N)c2cc1OC [PRAZOSIN]
[1]
  ABSOLUTE BASOPHIL: 0 CELLS/uL
  ABSOLUTE EOSINOPHIL: 228.67 CELLS/uL
  ABSOLUTE LYMPHOCYTE: 11545.33 CELLS/uL
  ABSOLUTE MONOCYTE: 136 CELLS/uL
  ABSOLUTE SEGMENTED NEUTROPHIL: 1690 CELLS/uL
  BASOPHIL: 0%
  EOSINOPHIL: 1.67%
  ERYTHROCYTE COUNT: 5.54 x10E6/uL
  HEMATOCRIT: 34.63%
  HEMOGLOBIN: 13.5 G/DL
  LEUKOCYTE COUNT: 13.6 x10E3/uL
  LYMPHOCYTE: 85.33%
  MEAN CORPUSCULAR HEMOGLOBIN: 24.47 pg
  MEAN CORPUSCULAR HEMOGLOBIN CONCENTRATION: 39.03 G/DL
  MONOCYTE: 1%
  NEUTROPHIL: 12%
  NUCLEATED RED BLOOD CELLS: 0 /100WBC
  PLATELET COUNT: 1245 x10E3/uL
  ALANINE AMINOTRANSFERASE: 57.33 u/L
  ALBUMIN: 4.23 G/DL
  ALKALINE PHOSPHATASE: 336.33 u/L
  ASPARTATE AMINOTRANSFERASE: 106.67 u/L
  BLOOD UREA NITROGEN: 16.67 mg/dL
  CARBON DIOXIDE: 21.67 mmol/L
  CHLORIDE: 104.33 MEQ/L
  CHOLESTEROL: 73 mg/dL
  CREATINE PHOSPHOKINASE: 877.67 u/L
  CREATININE: 0.19 mg/dL
  GLUCOSE: 131.67 mg/dL
  LACTATE DEHYDROGENASE: 643.67 u/L
  LIPASE: 9.67 u/L
  PHOSPHORUS: 11.7 mg/dL
  POTASSIUM: 6.1 MEQ/L
  SODIUM: 144.23 MEQ/L
  TOTAL BILIRUBIN: 0.23 mg/dL
  TOTAL PROTEIN: 6.13 G/DL
  URIC ACID: 1.5 mg/dL
[2]
  ABSOLUTE BASOPHIL: 0 CELLS/uL
  ABSOLUTE EOSINOPHIL: 93.33 CELLS/uL
  ABSOLUTE LYMPHOCYTE: 7483.33 CELLS/uL
  ABSOLUTE MONOCYTE: 100 CELLS/uL
  ABSOLUTE SEGMENTED NEUTROPHIL: 856.67 CELLS/uL
  BASOPHIL: 0%
  EOSINOPHIL: 1%
  ERYTHROCYTE COUNT: 5.18 x10E6/uL
  HEMATOCRIT: 33.2%
  HEMOGLOBIN: 13 G/DL
  LEUKOCYTE COUNT: 8.53 x10E3/uL
  LYMPHOCYTE: 87.33%
  MEAN CORPUSCULAR HEMOGLOBIN: 25.1 pg
  MEAN CORPUSCULAR HEMOGLOBIN CONCENTRATION: 39.17 G/DL
  MONOCYTE: 1.33%
  NEUTROPHIL: 10.33%
  NUCLEATED RED BLOOD CELLS: 0 /100WBC
  PLATELET COUNT: 1248.33 x10E3/uL
  ALANINE AMINOTRANSFERASE: 55.33 u/L
  ALBUMIN: 3.8 G/DL
  ALKALINE PHOSPHATASE: 290.33 u/L
  ASPARTATE AMINOTRANSFERASE: 131.67 u/L
  BLOOD UREA NITROGEN: 18.33 mg/dL
  CARBON DIOXIDE: 24 mmol/L
  CHLORIDE: 105 MEQ/L
  CHOLESTEROL: 68.33 mg/dL
  CREATINE PHOSPHOKINASE: 1224.33 u/L
  CREATININE: 0.19 mg/dL
  GLUCOSE: 153 mg/dL
  LACTATE DEHYDROGENASE: 177.67 u/L
  LIPASE: 9.67 u/L
  PHOSPHORUS: 10.87 mg/dL
  POTASSIUM: 5.14 MEQ/L
  SODIUM: 144.9 MEQ/L
  TOTAL BILIRUBIN: 0.17 mg/dL
  TOTAL PROTEIN: 5.37 G/DL
  URIC ACID: 1.17 mg/dL
[3]
  ABSOLUTE BASOPHIL: 0 CELLS/uL
  ABSOLUTE EOSINOPHIL: 0 CELLS/uL
  ABSOLUTE LYMPHOCYTE: 9169.67 CELLS/uL
  ABSOLUTE MONOCYTE: 0 CELLS/uL
  ABSOLUTE SEGMENTED NEUTROPHIL: 630.33 CELLS/uL
  BASOPHIL: 0%
  EOSINOPHIL: 0%
  ERYTHROCYTE COUNT: 5.58 x10E6/uL
  HEMATOCRIT: 34%
  HEMOGLOBIN: 13.3 G/DL
  LEUKOCYTE COUNT: 9.8 x10E3/uL
  LYMPHOCYTE: 93.33%
  MEAN CORPUSCULAR HEMOGLOBIN: 23.83 pg
  MEAN CORPUSCULAR HEMOGLOBIN CONCENTRATION: 39.13 G/DL
  MONOCYTE: 0%
  NEUTROPHIL: 6.67%
  NUCLEATED RED BLOOD CELLS: 0 /100WBC
  PLATELET COUNT: 1205.67 x10E3/uL
  ALANINE AMINOTRANSFERASE: 63.33 u/L
  ALBUMIN: 3.8 G/DL
  ALKALINE PHOSPHATASE: 286.33 u/L
  ASPARTATE AMINOTRANSFERASE: 139.33 u/L
  BLOOD UREA NITROGEN: 16 mg/dL
  CARBON DIOXIDE: 21.33 mmol/L
  CHLORIDE: 104.67 MEQ/L
  CHOLESTEROL: 64.67 mg/dL
  CREATINE PHOSPHOKINASE: 1202.67 u/L
  CREATININE: 0.19 mg/dL
  GLUCOSE: 152 mg/dL
  LACTATE DEHYDROGENASE: 204 u/L
  LIPASE: 9 u/L
  PHOSPHORUS: 10.4 mg/dL
  POTASSIUM: 5.65 MEQ/L
  SODIUM: 146.07 MEQ/L
  TOTAL BILIRUBIN: 0.2 mg/dL
  TOTAL PROTEIN: 5.3 G/DL
  URIC ACID: 0.73 mg/dL
